{"source": "patent US11919856B2", "about": "“Compounds” (UCL BUSINESS LTD, priority 2018, dated 2024)", "key": {"M α1-antitrypsin": {"biological_target": "T1, M α1-antitrypsin (Homo sapiens, UniProt P01009)", "T1 construct": "Alpha1-antitrypsin was purified from the plasma of ZZ and MM α1-antitrypsin homozygotes; from tissue; host or cells: plasma of MM homozygotes", "T1 sequence (P01009 25-418)": "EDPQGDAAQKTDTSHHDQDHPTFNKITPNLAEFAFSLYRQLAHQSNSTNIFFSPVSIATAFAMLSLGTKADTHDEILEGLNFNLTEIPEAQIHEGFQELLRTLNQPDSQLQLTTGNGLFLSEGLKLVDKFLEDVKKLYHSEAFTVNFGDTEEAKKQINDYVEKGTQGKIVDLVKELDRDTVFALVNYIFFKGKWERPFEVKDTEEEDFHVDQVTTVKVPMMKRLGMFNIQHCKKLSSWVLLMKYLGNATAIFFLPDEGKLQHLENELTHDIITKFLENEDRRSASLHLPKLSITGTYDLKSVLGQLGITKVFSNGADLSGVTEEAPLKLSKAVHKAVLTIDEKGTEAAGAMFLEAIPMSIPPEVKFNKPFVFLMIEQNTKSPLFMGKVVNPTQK", "test": "Biochemical competition binding assay (TR-FRET), M α1-antitrypsin", "details": "selectivity Z over M", "procedure": "Alpha1-antitrypsin was purified from the plasma of ZZ and MM α1-antitrypsin homozygotes as described in Lomas et al., Biochemistry. 1993; 32:500-8. Recombinant Cys232Ser α1-antitrypsin was expressed and purified as detailed in Irving et al. Methods Enzymol. 2011; 501:421-66 and Haq et al. Biosci Rep. 2013; 33(3):e00046.\nA fluorescent derivative of compound 1 was prepared by derivatizing compound 1 at its ring nitrogen atom with an Alexa Fluor 488 label via a short organic linker group.\nA serial dilution of test compounds in DMSO was diluted 25-fold with assay buffer, and 2.5 μl of this intermediate dilution transferred to a black, low-volume 384-well microtitre plate (Greiner BioOne; product no. 784076). […]\nPlates were sealed and incubated overnight at room temperature, or for 3 days at 4° C. then 6 hours at room temperature. […] The TR-FRET signal was read on an Envision plate reader, by excitation of Terbium at 337 nm and detection of emission at 520 nm and 495 nm.\nDissociation constants (KD) for the affinity of compounds to Z-a1AT or M-a1AT protein were derived from the pIC50 values according to the Cheng-Prusoff equation, taking into account the concentration of fluorescent ligand used in relation to its affinity as determined in independent Fluorescence Polarisation and TR-FRET experiments: KD(compound)=10^−pIC50(compound)/([…]. Compound Association Experiments"}, "Z α1-antitrypsin": {"biological_target": "Z α1-antitrypsin (Homo sapiens, UniProt P01009, E366K/V237A)", "sequence (P01009 25-418 V237A/E366K)": "as the sequence (P01009 25-418) above, with V213A, E342K counted along it", "test": "Secretion of Z α1-antitrypsin from CHO-TET-ON-Z-A1AT cells (immunoassay of supernatant)", "format": "cell-based", "parameters": "expressed in transfected cells; host or cells: CHO Tet-On (CHO-K1) cells, doxycycline-induced", "procedure": "CHO Tet-On cells that conditionally express Z α1-antitrypsin (Ordóñez A et al. Hepatology 2013; 57(5):2049-60.) were simultaneously treated with 0.5 μg/mL […] and various concentrations of compounds for 48 hours in 6 well plates. Cells without doxycycline or treated with 1% v/v DMSO acted as controls. The cells were lysed and intracellular Z α1-antitrypsin polymer was evaluated by ELISA sandwich with the 2C1 monoclonal antibody (Miranda et al. Hepatology. 2010; 52:1078-88). Newly synthesised α1-antitrypsin was evaluated by growing cells induced to express Z α1-antitrypsin in DMEM without methionine (Met) and cysteine (Cys) for 1 h and then labelling with 1.3 MBq of ^35S-Met/Cys for 15 min. The cells were then rinsed and incubated in chase medium containing an excess of unlabeled Met and Cys for 0, 2 and 6 h. After the chase period, the medium was collected and cells were harvested. α1-Antitrypsin from the medium and cell lysates was immunoprecipitated with a polyclonal α1-antitrypsin antibody or the 2C1 monoclonal antibody that detects polymers by splitting each sample in two equal parts. Radiolabelled proteins were re-suspended in SDS loading buffer, boiled for 5 min, separated by 10% w/v acrylamide SDS-PAGE, and quantified by autoradiography.\nIts ability to block Z α1-antitrypsin polymerisation in the ER during folding was assessed by adding Compound 1 to CHO-TET-ON-Z-A1AT cells (Ordóñez et al. Hepatology. 2013; 57(5):2049-60) with simultaneous induction of Z α1-antitrypsin expression using doxycycline. […] To investigate whether in addition to blocking polymerisation, Compound 1 was also able to increase secretion of Z α1-antitrypsin, Z α1-antitrypsin expression was induced in CHO-TET-ON-Z-A1AT cells, Compound 1 was added, and the total Z α1-antitrypsin in the supernatant was measured by immunoassay after 6 hours."}, "CHO-TET-ON-Z-A1AT cells": {"test_system": "CHO-TET-ON-Z-A1AT cells", "test": "Cell viability assay with ER stressor tunicamycin", "format": "cell-based", "details": "10 μM, versus cells expressing wild-type M α1-antitrypsin", "procedure": "To investigate the ability of Compound 1 to protect cells from sensitisation to a secondary toxin, Z α1-antitrypsin expression was induced in CHO-TET-ON-Z-A1AT cells in the presence or absence of 10 μM Compound 1 before exposure to varying concentrations of the ER stressor tunicamycin. In a cell viability assay, cells expressing wild-type M α1-antitrypsin were less sensitive to tunicamycin than cells expressing Z α1-antitrypsin."}, "α1-antitrypsin": {"test_system": "α1-antitrypsin", "test": "End-point constant-temperature heat-induced polymerisation assay (non-denaturing PAGE)", "format": "biochemical, human", "details": "constant-temperature experiment, versus absence", "procedure": "Resistance to heat-induced polymerisation was also determined using an end-point constant-temperature assay. Plasma purified M and Z α1-antitrypsin were diluted to 0.2 mg/ml in PBS with 5% v/v glycerol, incubated with 10 μM Compound 1 (or with DMSO alone) for 2 hours and then heated in 20 μl aliquots for a further 4 hours in a thermal cycler with a 48-65° C. gradient applied across the plate. Samples were analysed on a 3-12% w/v acrylamide Bis-Tris Native-PAGE gel (Life Technologies).\nPolymerisation of α1-antitrypsin occurs from a transient intermediate state known as M*, that is readily populated by the Z variant. One of the hallmarks of M* is its recognition by environment-sensitive fluorescent reporter dyes. Thermal shift assays that make use of the dye SYPRO Orange report the stability of the protein native state against heat-induced unfolding. […] Native state stability can also be probed by equilibrium unfolding using chemical denaturants, where a peak in bis-ANS fluorescence corresponds with a maximally populated unfolding intermediate."}, "human serum albumin": {"biological_target": "human serum albumin (Homo sapiens, UniProt P02768)", "sequence (P02768 25-609)": "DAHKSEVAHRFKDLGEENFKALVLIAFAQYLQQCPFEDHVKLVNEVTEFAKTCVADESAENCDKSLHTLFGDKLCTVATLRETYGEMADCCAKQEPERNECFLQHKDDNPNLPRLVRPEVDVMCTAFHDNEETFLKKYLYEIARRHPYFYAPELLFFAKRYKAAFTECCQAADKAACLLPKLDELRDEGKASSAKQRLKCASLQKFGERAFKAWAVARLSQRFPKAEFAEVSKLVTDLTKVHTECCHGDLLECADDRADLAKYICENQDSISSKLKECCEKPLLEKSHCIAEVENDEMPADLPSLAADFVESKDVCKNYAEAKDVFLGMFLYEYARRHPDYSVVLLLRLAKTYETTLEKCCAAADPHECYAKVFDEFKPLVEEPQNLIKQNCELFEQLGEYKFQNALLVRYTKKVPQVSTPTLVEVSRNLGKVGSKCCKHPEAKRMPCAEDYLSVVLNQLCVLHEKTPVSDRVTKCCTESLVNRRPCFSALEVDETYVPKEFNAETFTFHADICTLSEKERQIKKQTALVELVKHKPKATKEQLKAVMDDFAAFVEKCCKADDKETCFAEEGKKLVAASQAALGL", "test": "Binding to human serum albumin", "format": "in vitro ADME"}}, "note": "Like-named read-outs stand apart in the source and are kept apart here.", "data": [{"compound": "CCC[C@@H](NC(=O)c1cccc2c1CC(=O)N2)[C@@H](O)c1cccc(F)c1C", "note": "[Compound 1, N-[(1S,2R)-1-(3-fluoro-2-methylphenyl)-1-hydroxypentan-2-yl]-2-oxo-2,3-dihydro-1H-indole-4-carboxamide]", "values": [{"measurement": "fold lower affinity for plasma-purified wild-type M α1-antitrypsin", "setting": "M α1-antitrypsin", "result": "at least 50 fold"}, {"measurement": "EC50", "setting": "Z α1-antitrypsin; CHO-TET-ON-Z-A1AT cells, after 6 hours, read-out: pEC50, secretion of Z α1-antitrypsin (converted)", "result": 501, "unit": "nM"}, {"measurement": "increase of secreted levels of Z α1-antitrypsin", "setting": "Z α1-antitrypsin; CHO-TET-ON-Z-A1AT cells, supernatant after 6 hours, compared to vehicle control", "result": "approximately 3 fold"}, {"measurement": "EC50", "setting": "Z α1-antitrypsin; cellular secretion assay, read-out: EC50 measured for secretion of Z α1-antitrypsin", "result": "~300", "unit": "nM"}, {"measurement": "sensitivity to tunicamycin in cell viability assay", "setting": "CHO-TET-ON-Z-A1AT cells", "result": "restored sensitivity"}, {"measurement": "temperature at which oligomers are generated", "setting": "α1-antitrypsin", "result": "higher temperatures"}, {"measurement": "binding to human serum albumin", "setting": "human serum albumin", "result": 84.2, "unit": "%"}]}]}
